Data set [1] is described as follows: Shelf stability (precipitation) of formulated compound. The data set is classed as physicochemical. The following applies: 72 hours after preparation; 0.6 mg/mL in 9.6% polyethylene glycol 300, 0.4% polysorbate 20 and 5% dextrose. As for the experimental part: Compound 1 Tartrate salt solubility is equal to 0.1 mg/mL. […] This increase in solubility has a positive impact on the shelf stability of formulated Compound 1.

Data set [2] concerns human prostatic adenocarcinoma cancer PC3 cells. The data set can be described thus: Growth of PC3 prostatic tumors in SCID mice. The following applies: 5 consecutive intravenous injections; Compound 1 Mesylate Salt 4.84 μMoles/Kg; Compound 66 4.84 or 14.51 μMoles/Kg (FIG. 6). The data set is classed as in vivo. The protocol: The human prostatic adenocarcinoma cancer PC3 cells were purchased from the American Type Culture Collection (ATCC). These cells were confirmed to be free of mycoplasma infection. Cells were maintained in the Roswell Park Memorial Institute (RPMI), supplemented with 10% inactivated fetal bovine serum and 1% penicillin-streptomycin-L-Glutamine, under 5% carbon dioxide (CO2) at 37° C. For prostatic-tumor induction, cells were grown lower than 70% confluence in complete medium and then collected with trypsin (Bio Whittaker, Rockland, Me., USA). Cells were then centrifuged and washed 2 times in phosphate buffer solution (PBS) and resuspended in PBS at 1.5×10^6 cells/0.1 mL. PC3 cells were then transplanted subcutaneously into the flank of SCID mice (Charles River Laboratories, Wilmington, Mass., USA), as a suspension of tumor cells (1.5×10^6 cells in 100 μL PBS), under a laminar airflow hood. Eleven (11) days later, the size of each tumor was measured. […] Relative tumor size and volume was calculated as follows: length (cm)×[width (cm)]^2/2. […]

Data set [3] has as its system H1299 human non-small cell lung cancer cells. The data set can be described thus: Cell viability by cellular ATP levels (ViaLight), H1299. Type of data set: cell-based. As for the experimental part: (§1) One day after plating, the cells were treated with various concentrations of Compound 1 Tartrate. Stock solutions of the Compound 1 Tartrate were prepared in dimethyl sulfoxide (Sigma-Aldrich Inc., St. Louis, Mo., USA), diluted in the recommended media and then added to the cells. The total dimethyl sulfoxide on the cells was 1%. […] The results were plotted relative to untreated control cells, which were set at a value of 100.
(§2) As depicted in Table 4, these compounds were efficient in decreasing cellular ATP levels in H1299 and C33A cancer cell lines. […], these compounds are believed to have utility in the in vivo methods of the invention, i.e., treatment and prevention of cancer and viral infections, respectively. It should be noted that, although this cell-based assay is believed to be indicative of anti-oncogenic activity in vivo, it is not the only useful assay for evaluating the anti-oncogenic activity of Triheterocyclic Compounds of the invention. In addition, the anti-viral and other biological activity of compounds of the invention can be determined and evaluated in other assay systems known to the skilled artisan.

The subject of data set [4] is OVCAR-3 human ovarian carcinoma cell line. The data set can be described thus: Cell viability by cellular ATP levels (ViaLight), OVCAR-3. Type of data set: cell-based. As to conditions: OVCAR-3, Ovary, ATP levels 72 h post-treatment, read-out: IC50 of Compound 1 tartrate. As for the experimental part: as §1
Data set [5] relates to B16-F1 mouse melanoma cell line. In words: Cell viability by cellular ATP levels (ViaLight), B16-F1. As to conditions: B16-F1, Murine Melanoma, ATP levels 72 h post-treatment, read-out: IC50 of Compound 1 tartrate. Type of data set: cell-based. The protocol: as §1
Data set [6] deals with SW-480 human adenocarcinoma cell line. The data set can be described thus: Cell viability by cellular ATP levels (ViaLight), SW-480. Type of data set: cell-based. As to conditions: SW480, SW-480, Colorectal, ATP levels 72 h post-treatment, read-out: IC50 of Compound 1 tartrate. As for the experimental part:
as §1

The test system of data set [7] is C33A human cervical cancer cells. In words: Growth of C33A cervical tumors in SCID mice. Type of data set: in vivo, CB17 SCID/SCID mice. The following applies: 4.5 mg/kg IV once a day for five days (FIG. 3). As for the experimental part:
Viability was examined by staining with trypan blue (Gibco, NY, USA) and only flasks with cell viability greater than 95% were used for in vivo studies.
(§3) There were three treatment groups of ten mice each: (a) a negative control group, (b) a positive control group and (c) a group treated with Compound 1 Tartrate.
(§4) Treatments started on day fourteen after C33A cells transplantation. Compound 1 Tartrate was administered IV once daily for five consecutive days at a dose of 4.5 mg/kg. Compound 1 Tartrate was prepared fresh daily in a vehicle solution of 5% Dextrose (Abbot Laboratories, QC, Canada) and 2% polysorbate 20 (Sigma, St. Louis, Mo., USA). The negative control group was treated with vehicle alone. The injection volume for both Compound 1 Tartrate group and the negative control group was 150 μl.
(§5) Observation continued for 40 days after initial tumor implantation.

The subject of data set [8] is cancer cell lines H1299 and C33A; normal cell lines HMEC and MRC-5. The data set can be described thus: Cellular ATP levels, cancer cell lines compared with normal cell lines. The data set is classed as cell-based. As for the experimental part:
as §1

Data set [9] concerns HMEC normal mammary epithelial cells. The data set can be described thus: Cell viability by cellular ATP levels (ViaLight), HMEC. The data set is classed as cell-based. As to conditions: Homo sapiens, Normal Breast, ATP levels 72 h post-treatment, read-out: IC50 of Compound 1 tartrate. The protocol: as §1
The test system of data set [10] is C33A cervical carcinoma cells. The data set can be described thus: Cell viability by cellular ATP levels (ViaLight), C33A. The data set is classed as cell-based. The following applies: Homo sapiens. As for the experimental part: as §1, §2
For data set [11], the system named is A549 human lung carcinoma cell line. The data set can be described thus: Cell viability by cellular ATP levels (ViaLight), A549. The data set is classed as cell-based. As to conditions: A549, NSCLC, ATP levels 72 h post-treatment, read-out: IC50 of Compound 1 tartrate. As for the experimental part: as §1
In data set [12] the test system is PC-3 human prostatic carcinoma cell line. The data set can be described thus: Cell viability by cellular ATP levels (ViaLight), PC-3. Type of data set: cell-based. The following applies: PC-3, Prostate, ATP levels 72 h post-treatment, read-out: IC50 of Compound 1 tartrate. As for the experimental part:
as §1

The test system of data set [13] is H460 non-small cell lung cancer cell line. The data set can be described thus: Cell viability by cellular ATP levels (ViaLight), H460. As to conditions: Homo sapiens, NCI-H460; H460, NSCLC; ATP levels 72 h post-treatment; read-out: IC50 of Compound 1 tartrate. Type of data set: cell-based. As for the experimental part:
as §1

Data set [14] concerns ADR-RES human breast cancer cell line. In words: Cell viability by cellular ATP levels (ViaLight), NCI/ADR-RES. As to conditions: Breast (multi-drug resistant), ATP levels 72 h post-treatment, read-out: IC50 of Compound 1 tartrate. The data set is classed as cell-based. As for the experimental part: as §1
The test system of data set [15] is MCF-7 human breast cancer cell line. The data set can be described thus: Cell viability by cellular ATP levels (ViaLight), MCF-7. As to conditions: MCF7, MCF-7, Breast, ATP levels 72 h post-treatment, read-out: IC50 of Compound 1 tartrate. The data set is classed as cell-based. As for the experimental part:
as §1

Data set [16] is described as follows: Solubility (filtration, LC/MS).
Procedure: To determine whether a compound is soluble in a solution, the solution was filtered on 0.2 μM polytetrafluoroethylene filters (Whatman Inc. Clifton, N.J., USA) and the compound concentration in the filtrate was measured by LC/MS and compared to the expected concentration.
The column used was XTerra MS C18: 50×2.1 mm, 3.5 mm column at 20° C. Samples were injected and separated under the following conditions: The mobile phase “A” consisted of 5 mM ammonium formate, 0.1% formic acid in water and mobile phase “B” consisted of 5 mM ammonium formate, 0.1% formic acid in methanol. […] The Mass Spectrometer system consisted of a Waters ZQ2000 single quadrupole mass spectrometer (Waters, Milford, Mass., USA) equipped with an Electrospray Ionization Source (ES). The mass detector was operated in positive ion mode (ES+) and Selected Ion Recording mode (SIR). Compounds were detected at m/z equal to their respective molecular weight plus 1.
The target of data set [17] is T1, human placental alkaline phosphatase (Homo sapiens, UniProt P05187).
T1 construct: purchased Sigma-Aldrich Canada Ltd
T1 sequence (P05187 23-506): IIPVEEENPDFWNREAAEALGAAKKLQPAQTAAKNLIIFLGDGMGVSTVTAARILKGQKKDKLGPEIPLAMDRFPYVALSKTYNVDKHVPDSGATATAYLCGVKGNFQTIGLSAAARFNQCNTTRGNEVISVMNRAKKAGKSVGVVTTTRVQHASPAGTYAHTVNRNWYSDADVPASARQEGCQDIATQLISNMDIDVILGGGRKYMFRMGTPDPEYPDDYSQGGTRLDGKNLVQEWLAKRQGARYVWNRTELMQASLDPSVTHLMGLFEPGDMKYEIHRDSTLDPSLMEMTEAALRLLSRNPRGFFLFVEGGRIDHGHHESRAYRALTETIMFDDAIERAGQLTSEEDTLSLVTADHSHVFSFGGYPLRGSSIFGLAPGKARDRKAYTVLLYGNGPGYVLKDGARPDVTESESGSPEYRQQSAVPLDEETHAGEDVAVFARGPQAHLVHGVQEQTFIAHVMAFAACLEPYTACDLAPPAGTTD
In words: Conversion of phosphate pro-drug by human placental alkaline phosphatase. The data set is classed as in vitro ADME. The following applies: 15 μM, 0.02 U/100 μL enzyme, pH 7.4, up to 120 minutes (FIG. 4). The protocol: (§6) The conversion into biologically active drug of phosphate pro-drugs by calf intestinal alkaline phosphatase and human placental alkaline phosphatase was measured in vitro using purified enzymes. Purified calf intestinal alkaline phosphatase (Roche Diagnostic Inc. Laval, Quebec, Canada) or human placental alkaline phosphatase (Sigma-Aldrich Canada Ltd. Oakville, Ontario, Canada) was added at a concentration of 0.02 U/100 μL to a solution containing 15 μM of Compound 66, 20 mM Tris-HCl, pH 7.4 and 0.9% NaCl. The solutions were incubated for 30, 60 or 120 minutes. A solution containing 15 μM of Compound 66, 20 mM Tris-HCl, pH 7.4 and 0.9% NaCl was used as a reference (time=0 minutes). To each solution, an equal volume (100 μL) of ice-cold acetonitrile was added, and then the mixture was vortexed and transferred to glass vials. A standard concentration curve of the pro-drug and the drug was prepared in 10 mM Tris-HCl, pH 7.4, 0.45% NaCl and 50% acetonitrile. All samples were immediately analyzed by LC/MS.

Data set [18] concerns the target T2, calf intestinal alkaline phosphatase (Bos taurus, UniProt P19111).
T2 construct: purchased Roche Diagnostic Inc
In words: Conversion of phosphate pro-drug by calf intestinal alkaline phosphatase. Type of data set: in vitro ADME. As to conditions: 15 μM, 0.02 U/100 μL enzyme, pH 7.4, up to 120 minutes (FIG. 5). The protocol:
as §6

Data set [19] in a line: Body weight and deaths of SCID mice bearing C33A tumors. Type of data set: in vivo, CB17 SCID/SCID mice. As to conditions: cisplatin 4 mg/kg IP; days 29 and 32, group of ten mice. As for the experimental part:
as §3, §4, §5

[20] abbreviates: NCI-H1299, H1299, cellular ATP levels as in Example 2, read-out: IC50 (μM) H1299, Effect on Cancer Cells Viability.
Where [21] appears, read: C-33-A, C33A, cellular ATP levels as in Example 2, read-out: IC50 (μM) C33A, Effect on Cancer Cells Viability.
The mark [22] stands for this setting: NCI-H1299, read-out: IC50 (μM) H1299, Effect on Cancer Cells Viability.
Where [23] appears, read: C-33-A, read-out: IC50 (μM) C33A, Effect on Cancer Cells Viability.

Where a name gives a salt, the structure may show the parent alone. Read-outs that look alike come from different tables or passages of the source.

T2 sequence (P19111 20-506): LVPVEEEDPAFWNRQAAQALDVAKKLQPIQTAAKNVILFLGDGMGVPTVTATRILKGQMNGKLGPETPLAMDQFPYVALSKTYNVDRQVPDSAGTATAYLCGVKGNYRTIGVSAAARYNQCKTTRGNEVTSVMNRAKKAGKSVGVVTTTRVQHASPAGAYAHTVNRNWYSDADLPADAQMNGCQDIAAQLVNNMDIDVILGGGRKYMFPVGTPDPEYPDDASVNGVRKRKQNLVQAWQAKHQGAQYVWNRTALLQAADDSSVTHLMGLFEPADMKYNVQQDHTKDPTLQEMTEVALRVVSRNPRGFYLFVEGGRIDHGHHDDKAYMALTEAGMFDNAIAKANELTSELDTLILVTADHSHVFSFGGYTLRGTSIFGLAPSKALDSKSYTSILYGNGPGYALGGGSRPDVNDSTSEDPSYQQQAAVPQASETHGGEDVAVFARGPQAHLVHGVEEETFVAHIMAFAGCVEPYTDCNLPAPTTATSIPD

As to `COC1=CC(c2cc3ccccc3[nH]2)=N/C1=C\c1[nH]c(C)cc1C` [Compound 1 Mesylate Salt], in [1], the “Precipitation of the formulation” value is recorded as “no evidence of precipitation”. Moreover, in data set [2], the “Growth of prostatic tumors in mice” value is “significantly reduce the growth of prostatic tumors”.
On to `COC1=CC(c2cc3ccccc3[nH]2)=N/C1=C\c1[nH]c(C)cc1C` [Compound 1 tartrate], for which the IC50 in data set [3] (NCI-H1299, H1299, NSCLC, ATP levels 72 h post-treatment, read-out: IC50 of Compound 1 tartrate) came to 0.5 µM; in data set [4], 0.2 µM; in data set [5], 0.06 µM; in [6], 0.2 µM; in data set [9] it was 4 µM; in data set [10] (C-33A, Cervix, ATP levels 72 h post-treatment compared to untreated cells, read-out: IC50 of Compound 1 tartrate), 0.2 µM. Also, the IC50 in data set [11] stood at 0.4 µM; in data set [12], 0.2 µM; in data set [13], 0.3 µM; in data set [14], 0.4 µM; in [15] it was 0.6 µM. Further, the “Reduction in tumor growth compared to vehicle” value in data set [7] is on record as “statistically significant (p<0.0001) reduction in tumor growth”. The “Lowering of ATP levels in cancer cell lines H1299 and C33A compared with normal cell lines HMEC and MRC-5” value in data set [8] (0.5 μM, 72 hours after treatment (FIG. 1)) was “significantly more effective at lowering ATP levels”. The “Efficacy in decreasing cellular ATP levels, cancer cell lines versus HMEC” value in [8] (various concentrations, ten cancer cell lines versus HMEC normal mammary epithelial cell line) is “greater efficacy in decreasing cellular ATP levels in the cancer cell lines”.
As to `COC1=CC(c2cc3ccccc3[nH]2)=N/C1=C\c1[nH]c(C)cc1C` [Compound 1], the “Solubility in water (in words)” value in data set [16] (water) is listed as “poorly soluble in water”.
`COC1=CC(c2cc3ccccc3n2C(=O)Nc2ccc(N(C)C)cc2)=N/C1=C/c1[nH]c(C)cc1C` [Compound 52]: the IC50 in [3] (setting [20]) was determined as 1.04 µM; in data set [10] (setting [21]) it was 1.11 µM.
Regarding `CCOC(=O)COC1=CC(c2cc3ccccc3[nH]2)=N/C1=C\c1[nH]c(C)cc1C` [Compound 53], the IC50 was determined as 10.6 µM in [3] (setting [22]) and 10.2 µM in data set [10] (setting [23]).
Consider `COc1ccc(NC2=CC(c3cc4ccccc4[nH]3)=N/C2=C\c2[nH]c(C)cc2C)cc1` [Compound 61], for which the IC50 was 1.11 µM in data set [3] (setting [20]) and 0.93 µM in [10] (setting [21]).
Take `COC(=O)CCc1c(C)[nH]c(/C=C2/N=C(c3cc4ccccc4[nH]3)C=C2OC)c1C` [Compound 63]: the IC50 came out at 0.753 µM in [3] (setting [22]) and 0.548 µM in data set [10] (setting [23]).
For `COC1=CC(c2cc3ccccc3n2C(=O)CC(C)(C)c2c(C)cccc2OP(=O)(O)O)=N/C1=C/c1[nH]c(C)cc1C` [Compound 66], in data set [2], the “Growth of prostatic tumors in mice” value was “significantly reduce the growth of prostatic tumors”. Besides, in data set [16], the “Solubility, fold greater than Compound 1 Tartrate” value is 100 fold. Besides, the “Conversion of pro-drug into Compound 1” value in data set [17] and in data set [18] was “convert a fraction of the pro-drug” throughout.
Take `N.N.[Cl][Pt][Cl]` [cisplatin]: the Deaths result in data set [19] is listed as “Two mice died”.

What is called IC50 is the point on the concentration scale where inhibition reaches its midpoint.

Source of the values: patent publication US20080076739A1, “Methods for treating arthritis using triheterocyclic compounds” (Gemin X Biotechnologies Inc., priority 2005, published 2008).
